Counter-ions that a name gives are not always drawn.
Molecular target: T1, human TLR9 (Homo sapiens, UniProt Q9NR96)
T1 construct: host or cells: HEK-Blue cells
T1 sequence (Q9NR96 26-1032): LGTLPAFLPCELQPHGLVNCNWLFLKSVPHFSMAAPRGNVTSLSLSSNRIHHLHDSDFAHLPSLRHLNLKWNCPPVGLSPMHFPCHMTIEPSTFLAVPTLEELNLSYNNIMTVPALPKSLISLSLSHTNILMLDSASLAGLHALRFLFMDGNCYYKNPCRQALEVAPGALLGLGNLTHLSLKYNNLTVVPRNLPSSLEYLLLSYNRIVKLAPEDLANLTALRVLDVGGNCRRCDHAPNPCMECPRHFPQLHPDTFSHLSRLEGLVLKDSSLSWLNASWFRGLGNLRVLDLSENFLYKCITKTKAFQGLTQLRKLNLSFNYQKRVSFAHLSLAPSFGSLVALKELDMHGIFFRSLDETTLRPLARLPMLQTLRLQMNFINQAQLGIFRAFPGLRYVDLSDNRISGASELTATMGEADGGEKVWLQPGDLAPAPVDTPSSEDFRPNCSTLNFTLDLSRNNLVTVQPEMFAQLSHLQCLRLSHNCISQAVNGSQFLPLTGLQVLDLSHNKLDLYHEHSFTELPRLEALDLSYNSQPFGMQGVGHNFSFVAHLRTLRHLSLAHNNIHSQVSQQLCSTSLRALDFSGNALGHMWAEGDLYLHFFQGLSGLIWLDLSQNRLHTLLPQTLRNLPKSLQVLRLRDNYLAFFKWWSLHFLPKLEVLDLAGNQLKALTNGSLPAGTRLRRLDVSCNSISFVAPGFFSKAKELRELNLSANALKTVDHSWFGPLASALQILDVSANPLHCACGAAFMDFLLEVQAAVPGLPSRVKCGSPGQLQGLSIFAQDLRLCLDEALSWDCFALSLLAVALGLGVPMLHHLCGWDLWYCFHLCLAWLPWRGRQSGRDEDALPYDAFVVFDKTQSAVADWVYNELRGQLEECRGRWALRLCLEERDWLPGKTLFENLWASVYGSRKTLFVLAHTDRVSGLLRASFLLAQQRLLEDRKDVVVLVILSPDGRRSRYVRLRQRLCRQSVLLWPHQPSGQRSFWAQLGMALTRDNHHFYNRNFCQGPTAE
Experiment: TLR9 inhibition reporter assay (HEK-Blue cells, SEAP reporter, ODN2006 stimulation)
Format: cell-based
Conditions: HEK-Blue cells overexpressing human TLR9, ODN2006 5 nM
Outline: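 Dose–response from 0.05 nM to 50 μM was run in HEK-Blue human TLR7, TLR8 and TLR9 reporter cells. After 30 min at room temperature with compound, ligand was added (TLR7 gardiquimod 7.5 μM; TLR8 R848 15.9 μM; TLR9 ODN2006 5 nM) and SEAP measured next day, at 22 h.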

SMILES	IC50
CCc1c(-c2ccc(OC)c(OC)c2)[nH]c2c(F)cc(C3CCN(CCNC)CC3)cc12 [Example 191, 2-(4-(2-(3,4-dimethoxyphenyl)-3-ethyl-7-fluoro-1H-indol-5-yl)piperidin-1-yl)-N-methylethan-1-amine]	1.22 µM
CCc1c(-c2ccc(OC)c(OC)c2)[nH]c2ccc(C3CCN(C(=O)CNCC#N)CC3)cc12 [Example 161, 2-((2-(4-(2-(3,4-dimethoxyphenyl)-3-ethyl-1H-indol-5-yl)piperidin-1-yl)-2-oxoethyl)amino)acetonitrile]	≥ 50 µM
CCc1c(-c2ccc(OC)c(OC)c2)[nH]c2ccc(C3CCN(C4CCN(Cc5c[nH]cn5)CC4)CC3)cc12 [Example 125, 5-(1′-((1H-imidazol-4-yl)methyl)-[1,4′-bipiperidin]-4-yl)-2-(3,4-dimethoxyphenyl)-3-ethyl-1H-indole]	0.41 µM
CCc1c(-c2ccc(OC)c(OC)c2)[nH]c2ccc(C3CCN(C(=O)CNCCO)CC3)cc12 [Example 159, 1-(4-(2-(3,4-dimethoxyphenyl)-3-ethyl-1H-indol-5-yl)piperidin-1-yl)-2-((2-hydroxyethyl)amino) ethan-1-one]	3.38 µM
CCOC(=O)c1c(C)[nH]c(CN2CCC(N3CCC(c4ccc5[nH]c(-c6ccc(OC)c(OC)c6)c(CC)c5c4)CC3)CC2)c1C [Example 127, ethyl 5-((4-(2-(3,4-dimethoxyphenyl)-3-ethyl-1H-indol-5-yl)-[1,4′-bipiperidin]-1′-yl)methyl)-2,4-dimethyl-1H-pyrrole-3-carboxylate]	0.267 µM
CCc1c(-c2ccc(OC)c(OC)c2)[nH]c2ccc(C3CCN(C4CCN(Cc5cc(C)nn5C)CC4)CC3)cc12 [Example 132, 2-(3,4-dimethoxyphenyl)-5-(1′-((1,3-dimethyl-1H-pyrazol-5-yl)methyl)-[1,4′-bipiperidin]-4-yl)-3-ethyl-1H-indole]	0.695 µM
CCc1c(-c2ccc(OC)c(OC)c2)[nH]c2ccc(C3CCN(CC(C)C(F)(F)F)CC3)cc12 (stereo not shown) [Example 180, 2-(3,4-dimethoxyphenyl)-3-ethyl-5-(1-(3,3,3-trifluoro-2-methylpropyl)piperidin-4-yl)-1H-indole]	≥ 50 µM
CCc1c(-c2ccc(OC)c(OC)c2)[nH]c2ccc(C3CCN(C4CCN(Cc5sccc5C)CC4)CC3)cc12 [Example 139, 2-(3,4-dimethoxyphenyl)-3-ethyl-5-(1′-((3-methylthiophen-2-yl)methyl)-[1,4′-bipiperidin]-4-yl)-1H-indole]	0.444 µM
CCc1c(-c2ccc(OC)c(OC)c2)[nH]c2ccc(C3CCN(C(=O)CNc4nccs4)CC3)cc12 [Example 177, 1-(4-(2-(3,4-dimethoxyphenyl)-3-ethyl-1H-indol-5-yl)piperidin-1-yl)-2-(thiazol-2-ylamino)ethanone]	3.36 µM
CCc1c(-c2ccc(OC)c(OC)c2)[nH]c2c(F)cc(C3CCNCC3)cc12 [Example 189, 2-(3,4-dimethoxyphenyl)-3-ethyl-7-fluoro-5-(piperidin-4-yl)-1H-indole]	1.15 µM
CCc1c(-c2ccc(OC)c(OC)c2)[nH]c2ccc(C3CCN(C4CCN(Cc5ccccc5)CC4)CC3)cc12 [Example 147, 5-(1′-benzyl-[1,4′-bipiperidin]-4-yl)-2-(3,4-dimethoxyphenyl)-3-ethyl-1H-indole]	0.552 µM
CCc1c(-c2ccc(OC)c(OC)c2)[nH]c2ccc(C3CCN(C4CCN(C5CCCC5)CC4)CC3)cc12 [Example 152, 5-(1′-cyclopentyl-[1,4′-bipiperidin]-4-yl)-2-(3,4-dimethoxyphenyl)-3-ethyl-1H-indole]	0.233 µM
COc1ccc(-c2[nH]c3ccc(C4CCN(C(=O)CNCC(C)O)CC4)cc3c2C(C)C)cc1OC (stereo not shown) [Example 210, 1-(4-(2-(3,4-dimethoxyphenyl)-3-isopropyl-1H-indol-5-yl)piperidin-1-yl)-2-((2-hydroxypropyl)amino)ethan-1-one]	1.93 µM
CCN(CC)C(=O)CCN(C)CC(=O)N1CCC(c2ccc3[nH]c(-c4ccc(OC)c(OC)c4)c(C(C)C)c3c2)CC1 [Example 204, 3-((2-(4-(2-(3,4-dimethoxyphenyl)-3-isopropyl-1H-indol-5-yl)piperidin-1-yl)-2-oxoethyl)(methyl)amino)-N,N-diethylpropanamide]	2 µM
CCc1c(-c2ccc(OC)c(OC)c2)[nH]c2ccc(C3CCN(C4CCN(Cc5ccc(C)s5)CC4)CC3)cc12 [Example 140, 2-(3,4-dimethoxyphenyl)-3-ethyl-5-(1′-((5-methylthiophen-2-yl)methyl)-[1,4′-bipiperidin]-4-yl)-1H-indole]	0.479 µM
CCc1c(-c2ccc(OC)c(OC)c2)[nH]c2ccc(C3CCN(C4CCN(Cc5cc(C)n(C)n5)CC4)CC3)cc12 [Example 144, 2-(3,4-dimethoxyphenyl)-5-(1′-((1,5-dimethyl-1H-pyrazol-3-yl)methyl)-[1,4′-bipiperidin]-4-yl)-3-ethyl-1H-indole]	0.495 µM
COc1ccc(-c2[nH]c3ccc(C4CCN(C(=O)CNC5(CO)CCCC5)CC4)cc3c2C(C)C)cc1OC [Example 213, 1-(4-(2-(3,4-dimethoxyphenyl)-3-isopropyl-1H-indol-5-yl)piperidin-1-yl)-2-((1-(hydroxymethyl)cyclopentyl)amino)ethan-1-one]	2.07 µM
COc1ccc(-c2[nH]c3ccc(C4CCN(C5CCN(C)CC5)CC4)cc3c2C(C)C)cc1OC [Example 200, 2-(3,4-dimethoxyphenyl)-3-isopropyl-5-(1′-methyl-[1,4′-bipiperidin]-4-yl)-1H-indole]	1.26 µM
COc1ccc(-c2[nH]c3ccc(C4CCN(C(=O)CNC5CCC(N(C)C)CC5)CC4)cc3c2C(C)C)cc1OC (stereo not shown) [Example 215, 1-(4-(2-(3,4-dimethoxyphenyl)-3-isopropyl-1H-indol-5-yl)piperidin-1-yl)-2-((4-(dimethylamino)cyclohexyl)amino)ethan-1-one]	2.02 µM
CCc1c(-c2ccc(OC)c(OC)c2)[nH]c2ccc(C3CCN(C4CCN(Cc5cc6ccccc6[nH]5)CC4)CC3)cc12 [Example 128, 5-(1′-((1H-indol-2-yl)methyl)-[1,4′-bipiperidin]-4-yl)-2-(3,4-dimethoxyphenyl)-3-ethyl-1H-indole]	0.947 µM
CCc1c(-c2ccc(OC)c(OC)c2)[nH]c2ccc(C3CCN(C(=O)c4ccncc4)CC3)cc12 [Example 183, (4-(2-(3,4-dimethoxyphenyl)-3-ethyl-1H-indol-5-yl)piperidin-1-yl)(pyridin-4-yl) methanone]	10.2 µM
CCc1c(-c2ccc(OC)c(OC)c2)[nH]c2cc(OC)c(C3CCN(C4CCN(C(C)C)CC4)CC3)cc12 [Example 192, 2-(3,4-dimethoxyphenyl)-3-ethyl-5-(1′-isopropyl-[1,4′-bipiperidin]-4-yl)-6-methoxy-1H-indole]	0.26 µM
CCc1c(-c2ccc(OC)c(OC)c2)[nH]c2ccc(C3CCN(C(=O)CNC4CCC(N(C)C)CC4)CC3)cc12 (stereo not shown) [Example 162, 1-(4-(2-(3,4-dimethoxyphenyl)-3-ethyl-1H-indol-5-yl)piperidin-1-yl)-2-((4-(dimethylamino)cyclohexyl)amino)ethan-1-one]	0.402 µM
CCc1c(-c2ccc(OC)c(OC)c2)[nH]c2ccc(C3CCN(C4CCN(C(C)C)CC4)CC3)cc12 [Example 151, 2-(3,4-dimethoxyphenyl)-3-ethyl-5-(1′-isopropyl-[1,4′-bipiperidin]-4-yl)-1H-indole]	0.556 µM
COc1ccc(-c2[nH]c3ccc(C4CCN(C(=O)CNC56CC7CC(CC(C7)C5)C6)CC4)cc3c2C(C)C)cc1OC [Example 217, 2-(((3s,5s,7s)-adamantan-1-yl)amino)-1-(4-(2-(3,4-dimethoxyphenyl)-3-isopropyl-1H-indol-5-yl)piperidin-1-yl)ethan-1-one]	2.13 µM
COc1ccc(-c2[nH]c3ccc(C4CCN(C5CCNCC5)CC4)cc3c2C(C)C)cc1OC [Example 197, 5-([1,4′-bipiperidin]-4-yl)-2-(3,4-dimethoxyphenyl)-3-isopropyl-1H-indole dihydrochloride]	0.653 µM
COc1ccc(-c2[nH]c3ccc(C4CCN(C5CCN(CC(C)C)CC5)CC4)cc3c2Cl)cc1OC [Example 120, 3-chloro-2-(3,4-dimethoxyphenyl)-5-(1′-isobutyl-[1,4′-bipiperidin]-4-yl)-1H-indole di-trifluoroacetic acid]	0.157 µM
CCc1c(-c2ccc(OC)c(OC)c2)[nH]c2ccc(C3CCN(C(=O)C(C)(C)OC(C)=O)CC3)cc12 [Example 175, 1-(4-(2-(3,4-dimethoxyphenyl)-3-ethyl-1H-indol-5-yl)piperidin-1-yl)-2-methyl-1-oxopropan-2-yl acetate]	14.1 µM
